Here are results for 17 compounds from US20160090556A1, “PRODUCTS COMPRISING MALODOR REDUCTION MATERIALS” (The Procter & Gamble Company, priority 2014, published 2016).

Molecules are shown by their SMILES.

The first data set can be described thus: Liquid dish neat product liquid-air partition coefficient. Format: physicochemical.
Settings: not given
As to `CC1=CC[C@@H]2C3CC([C@@H]2C1)[C@@]1(C3)OC1C` (some centres unmarked) [Material 1007], the “Log of liquid dish neat product liquid-air partition coefficient (Comment Code K/L)” value (“Log … (Comment Code K/L)” for short) is “K (Log of liquid dish neat product liquid-air partition coefficient greater than or equal to −7)”.

Turning to `CC1=CC2CC(C3OCCO3)C1CC2C(C)C` (centres unmarked) [Material 912], the “Log … (Comment Code K/L)” value is given as “K (Log of liquid dish neat product liquid-air partition coefficient greater than or equal to −7)”.

Regarding `CC1CC2CCC3C(C2O1)C(C)(C)C(C)C3(C)C` (centres unmarked) [Material 1097], the “Log … (Comment Code K/L)” value is given as “K (Log of liquid dish neat product liquid-air partition coefficient greater than or equal to −7)”.

For the compound `CC(C)=CCC/C(C)=C/CC/C(C)=C/CO` [Material 1065], the “Log … (Comment Code K/L)” value is given as “K (Log of liquid dish neat product liquid-air partition coefficient greater than or equal to −7)”.

With `CC(=O)c1cc2c(cc1C)C(C)(C)C(C)C2(C)C` (centres unmarked) [Material 927], the “Log … (Comment Code K/L)” value was “K (Log of liquid dish neat product liquid-air partition coefficient greater than or equal to −7)”.

Staying with this data set, now noted: class code letter within Comment Code.
Take `COC1CCCCCCCCCCC1` [Material 9]: the “Log … (Comment Code K/L)” value is “K (Log of liquid dish neat product liquid-air partition coefficient greater than or equal to −7)”.

As for `COC(OC)C(C)c1ccccc1` (centres unmarked) [Material 256], the “Log … (Comment Code K/L)” value was “K (Log of liquid dish neat product liquid-air partition coefficient greater than or equal to −7)”.

Regarding `C=CCCCCCCC/C=C/CC#N` [Material 137], the “Log … (Comment Code K/L)” value is on record as “K (Log of liquid dish neat product liquid-air partition coefficient greater than or equal to −7)”.

For `CCCCCCCCCCCCCC(=O)OCC` [Material 388], the “Log … (Comment Code K/L)” value was “K (Log of liquid dish neat product liquid-air partition coefficient greater than or equal to −7)”.

For `CCC(=O)CCC1C(C)=CCCC1(C)C` (centres unmarked) [Material 293], the “Log … (Comment Code K/L)” value is reported as “K (Log of liquid dish neat product liquid-air partition coefficient greater than or equal to −7)”.

As to `c1ccc(Oc2ccccc2)cc1` [Material 428], the “Log … (Comment Code K/L)” value is recorded as “K (Log of liquid dish neat product liquid-air partition coefficient greater than or equal to −7)”.

As for `CCCCCCCC(=O)OCc1ccco1` [Material 336], the “Log … (Comment Code K/L)” value is listed as “K (Log of liquid dish neat product liquid-air partition coefficient greater than or equal to −7)”.

As to `CCC(C)=CCCC(C)=CC#N` [Material 158], the “Log … (Comment Code K/L)” value was “K (Log of liquid dish neat product liquid-air partition coefficient greater than or equal to −7)”.

The same data set, now with this note: code letters K, L.
For the compound `CC1=CC[C@@H]2C3CC([C@@H]2C1)[C@@]1(C3)OC1C` (some centres unmarked) [Material 1007], the “Comment Code: Log of liquid dish neat product liquid-air partition coefficient” value (shortened to “Comment Code: Log”) was “K (Log of liquid dish neat product liquid-air partition coefficient greater than or equal to −7)”.

On to `CCC(C)(C)C1CCC(O)CC1` (centres unmarked) [Material 995], for which the “Comment Code: Log” value is “K (Log of liquid dish neat product liquid-air partition coefficient greater than or equal to −7)”.

Take `COc1ccc(COC=O)cc1` [Material 665]: the “Comment Code: Log” value is “K (Log of liquid dish neat product liquid-air partition coefficient greater than or equal to −7)”.

Turning to `CC1CC2CCC3C(C2O1)C(C)(C)C(C)C3(C)C` (centres unmarked) [Material 1097], the “Comment Code: Log” value is reported as “K (Log of liquid dish neat product liquid-air partition coefficient greater than or equal to −7)”.

For `CC(C)(C)c1ccc(CC=O)cc1` [Material 994], the “Comment Code: Log” value is recorded as “K (Log of liquid dish neat product liquid-air partition coefficient greater than or equal to −7)”.

Consider `C=C(OC(C)=O)c1ccccc1` [Material 931], for which the “Comment Code: Log” value is listed as “K (Log of liquid dish neat product liquid-air partition coefficient greater than or equal to −7)”.

Turning to `CC(=O)c1cc2c(cc1C)C(C)(C)C(C)C2(C)C` (centres unmarked) [Material 927], the “Comment Code: Log” value was “K (Log of liquid dish neat product liquid-air partition coefficient greater than or equal to −7)”.
